Measured values reported in PMC2830944, “Purification and functional characterization of protoplasts and intact vacuoles from grape cells” (BMC Research Notes, 2010).

What was measured:
[1] = system: T1, V-ATPase (vacuolar ATPase, V-H+-ATPase); experiment: ACMA fluorescence quenching, initial velocity of proton pumping in intact vacuoles; format: biochemical, Vitis vinifera; details: 100 mM KCl, 2 mM MgCl2, 0.1% BSA, 10 mM MOPS-Tris pH 7.2, 2 μM ACMA; 0.05 to 1.5 mM ATP
T1 construct: gene VHA-A; native multisubunit complex in intact vacuoles isolated from protoplasts of cultured grape berry cells

[2] = system: V-PPase (vacuolar inorganic pyrophosphatase, V-H+-PPase); details: 100 mM KCl, 2 mM MgCl2, 0.1% BSA, 10 mM MOPS-Tris pH 7.2, 2 μM ACMA; 0.1 to 150 μM PPi

Row | Km [1] [µM] | Km [2] [µM] | Structure (SMILES)
1 | 340 |  | Nc1ncnc2c1ncn2[C@@H]1O[C@H](COP(=O)(O)OP(=O)(O)OP(=O)(O)O)[C@@H](O)[C@H]1O [ATP]
2 |  | 2 | O=P(O)(O)OP(=O)(O)O [PPi]
